From patent publication US11292788B2, “IL-17 and IFN-gamma inhibition for the treatment of autoimmune diseases and chronic inflammation” (Immunic AG, priority 2017, dated 2022)
Converted amounts (≈) assume the structure as drawn. Like-named read-outs stand apart in the source and are kept apart here.

How the values were obtained:
[1] = Aqueous solubility in 50 mM phosphate buffer (HPLC/DAD); type: physicochemical; conditions: aqueous solubility class; for solubility at 24 h: 50 mM phosphate buffer, 23 °C, pH 7.4, aqueous buffer, kinetic from dmso stock, read-out: aq. solub.
Description: To achieve this, the samples (final volume 500 μl, 200 μM compound concentration) were incubated for 24 hours at 23° C. under continuous shaking at 1400 rpm (Thermomixer, Eppendorf) in aqueous phosphate buffers (pH 4.0, 6.0, 7.4 and 9.0) with a final DMSO concentration of 1%. To separate the undissolved compound from the solution, the samples were centrifuged (30 min 18000 g at 23° C.). Supernatants were measured via HPLC equipped with a UV detector and concentrations were calculated according to signals of a standard curve. The standard curve was prepared by diluting a stock solution of each compound (c=0.1 mg/ml; received by adding 10 μl of 20 mM compound in DMSO to 914 μl MeCN) in a certain amount of MeCN to cover a range of 0.1 to 200 μg/ml.

IL-17A = experiment: Cytokine assay: IL-17A production by human PBMC stimulated with PHA; type: cell-based; conditions: IC50 class, read-out: IL-17A Inhib.
Outline: (§1)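 Compounds were titrated semilogarithmically for IC50, or screened at 10, 1, 0.1 and 0.01 μM, on healthy-donor PBMC stimulated for 48 h with 2 μg/ml PHA at 1×10^5 cells/well. Cytokines in culture supernatants were then quantified by ELISA or Luminex bead assay.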

IL-17F = experiment: Cytokine assay: IL-17F production by human PBMC stimulated with PHA; type: cell-based; conditions: IC50 class, read-out: IL-17F Inhib.
Outline: as §1

[2] = Microsomal stability: incubation with human liver microsomes, residual parent compound by HPLC-MS/MS; type: in vitro ADME; conditions: human liver microsomes 0.5 mg/ml, compound 1 μM, pH 7.4, 37° C., up to 60 min; for half-life at 1 μM: read-out: t1/2 hLM
Outline: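 Compound at 1 μM final with 0.5 mg/ml pooled human liver microsomes and NADPH regenerating system, 0.1 M potassium phosphate pH 7.4, 0.4% DMSO, 37° C, sampled up to 60 min. Residual parent measured by HPLC-MS/MS; half-life and clearance from slope of remaining % of T0.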

INF-γ = experiment: Cytokine assay: INF-γ production by human PBMC stimulated with PHA; type: cell-based; conditions: IC50 class, read-out: IFN-gamma Inhib.
Outline: as §1

solubility at 24 h [1] [µM] | IC50 (IL-17A; Homo sapiens, PBMC) [nM] | IC50 (IL-17F; Homo sapiens, PBMC) [nM] | half-life at 1 μM [2] [min] | IC50 (INF-γ; Homo sapiens, PBMC) [nM] | aq. solub. [1] | IC50 (IL-17A) [nM] | IC50 (IL-17F) [nM] | IC50 (INF-γ) [nM] | t1/2 hLM [2] | SMILES
> 10 | < 50 | < 50 | 10 to 40 | < 50 |  |  |  |  |  | CCOC(=O)c1c(-c2c(F)cccc2Cl)noc1-c1cnn(C[C@@H](C)O)c1C(F)(F)F [Example 12, ethyl 3-(2-chloro-6-fluorophenyl)-5-{1-[(2R)-2-hydroxypropyl]-5-(trifluoromethyl)-1H-pyrazol-4-yl}-1,2-oxazole-4-carboxylate]
> 10 | < 50 | < 50 | 40 to 100 | < 50 |  |  |  |  |  | CCOC(=O)c1c(-c2c(F)cccc2Cl)noc1-c1cnn(C[C@H](C)O)c1C(F)(F)F [Example 13, ethyl 3-(2-chloro-6-fluorophenyl)-5-(1-((2S)-2-hydroxypropyl)-5-(trifluoromethyl)-1H-pyrazol-4-yl)-1,2-oxazole-4-carboxylate]
> 10 | < 50 | < 50 | > 100 | < 50 |  |  |  |  |  | COC(=O)c1c(-c2c(F)cccc2Cl)noc1-c1cnn(CCC(C)(C)O)c1C [Example 20, methyl 3-(2-chloro-6-fluorophenyl)-5-[1-(3-hydroxy-3-methylbutyl)-5-methyl-1H-pyrazol-4-yl]-1,2-oxazole-4-carboxylate]
 |  |  | 40 to 100 |  | + (+: 1-2.99 μM) | 500 to 5000 | 500 to 5000 | 500 to 5000 |  | COC(=O)c1c(-c2c(F)cccc2Cl)noc1-c1cnn([C@H]2C[C@](C)(O)C2)c1C(F)(F)F [Example 26, methyl 3-(2-chloro-6-fluorophenyl)-5-(1-(3-hydroxy-3-methylcyclobutyl)-5-(trifluoromethyl)-1H-pyrazol-4-yl)isoxazole-4-carboxylate]
 |  |  |  |  | ++ (++: 3-9.99 μM) | < 50 | < 50 | < 50 | ++ (++: 40-100 min) | COC(=O)c1c(-c2c(F)cccc2Cl)noc1-c1cnn([C@H]2C[C@](C)(O)C2)c1C(F)(F)F [Example 27, methyl 3-(2-chloro-6-fluorophenyl)-5-(1-(3-hydroxy-3-methylcyclobutyl)-5-(trifluoromethyl)-1H-pyrazol-4-yl)isoxazole-4-carboxylate]
> 10 | 50 to 500 | 50 to 500 | 40 to 100 | 50 to 500 |  |  |  |  |  | CC(=O)c1c(-c2c(F)cccc2Cl)noc1-c1cnn(C[C@@H](C)O)c1C(F)(F)F [Example 35, 1-[3-(2-chloro-6-fluorophenyl)-5-{1-[(2R)-2-hydroxypropyl]-5-(trifluoromethyl)-1H-pyrazol-4-yl}-1,2-oxazol-4-yl]ethan-1-one]
> 10 | 50 to 500 | 500 to 5000 | 2 to 9.99 | 50 to 500 |  |  |  |  |  | C[C@@H](O)Cn1ncc(-c2onc(-c3c(F)cccc3Cl)c2C(=O)NC2CCCC2)c1C(F)(F)F [Example 44, 3-(2-chloro-6-fluorophenyl)-N-cyclopentyl-5-{1-[1-(2R)-2-hydroxypropyl]-5-(trifluoromethyl)-1H-pyrazol-4-yl}-1,2-oxazole-4-carboxamide]
1 to 2.99 (≈ 0.482 to 1.44 µg/mL) |  |  | > 100 |  |  | < 50 | < 50 | < 50 |  | C[C@]1(O)C[C@H](n2ncc(-c3onc(-c4ccccc4Cl)c3C(=O)OC3CC3)c2C(F)(F)F)C1 [Example 49, cyclopropyl 3-(2-chlorophenyl)-5-(1-(3-hydroxy-3-methylcyclobutyl)-5-(trifluoromethyl)-1H-pyrazol-4-yl)isoxazole-4-carboxylate]
1 to 2.99 (≈ 0.502 to 1.5 µg/mL) | < 50 | < 50 | 2 to 9.99 | < 50 |  |  |  |  |  | CC(C)(O)Cn1ncc(-c2onc(-c3c(F)cccc3Cl)c2C(=O)OC2CCC2)c1C(F)(F)F [Example 56, cyclobutyl 3-(2-chloro-6-fluorophenyl)-5-[1-(2-hydroxy-2-methylpropyl)-5-(trifluoromethyl)-1H-pyrazol-4-yl]-1,2-oxazole-4-carboxylate]
> 10 | < 50 | < 50 | 10 to 40 | < 50 |  |  |  |  |  | C[C@H](O)Cn1ncc(-c2onc(-c3c(F)cccc3Cl)c2C(=O)OC2CC2)c1C(F)(F)F [Example 59, cyclopropyl 3-(2-chloro-6-fluorophenyl)-5-{1-[(2S)-2-hydroxypropyl]-5-(trifluoromethyl)-1H-pyrazol-4-yl}-1,2-oxazole-4-carboxylate]
> 10 | 50 to 500 | 50 to 500 | 10 to 40 | 50 to 500 |  |  |  |  |  | C[C@H](O)Cn1ncc(-c2onc(-c3c(F)cccc3Cl)c2C(=O)OC2COC2)c1C(F)(F)F [Example 60, oxetan-3-yl 3-(2-chloro-6-fluorophenyl)-5-{1-[(2S)-2-hydroxypropyl]-5-(trifluoromethyl)-1H-pyrazol-4-yl}-1,2-oxazole-4-carboxylate]
> 10 | 50 to 500 | 50 to 500 | > 100 | < 50 |  |  |  |  |  | COCc1c(-c2c(F)cccc2Cl)noc1-c1cnn(CCC(C)(C)O)c1C(F)(F)F [Example 67, 4-{4-[3-(2-chloro-6-fluorophenyl)-4-(methoxymethyl)-1,2-oxazol-5-yl]-5-(trifluoromethyl)-1H-pyrazol-1-yl}-2-methylbutan-2-ol]
> 10 | 50 to 500 | 50 to 500 | 10 to 40 | < 50 |  |  |  |  |  | CCOCc1c(-c2c(F)cccc2Cl)noc1-c1cnn(C[C@@H](C)O)c1C(F)(F)F [Example 76, (2R)-1-{4-[3-(2-chloro-6-fluorophenyl)-4-(ethoxymethyl)-1,2-oxazol-5-yl]-5-(trifluoromethyl)-1H-pyrazol-1-yl}propan-2-ol]
3 to 9.99 (≈ 1.46 to 4.87 µg/mL) | < 50 | < 50 | > 100 | < 50 |  |  |  |  |  | CC(C)(O)CCn1ncc(-c2onc(-c3c(F)cccc3Cl)c2COC2CC2)c1C(F)(F)F [Example 77, 4-{4-[3-(2-chloro-6-fluorophenyl)-4-(cyclopropoxymethyl)-1,2-oxazol-5-yl]-5-(trifluoromethyl)-1H-pyrazol-1-yl}-2-methylbutan-2-ol]
> 10 | 50 to 500 | < 50 | 40 to 100 | < 50 |  |  |  |  |  | CC(C)(O)CCn1ncc(-c2onc(-c3ccccc3Cl)c2COC2CC2)c1C(F)(F)F [Example 78, 4-{4-[3-(2-chlorophenyl)-4-(cyclopropoxymethyl)-1,2-oxazol-5-yl]-5-(trifluoromethyl)-1H-pyrazol-1-yl}-2-methylbutan-2-ol]
> 10 | < 50 | < 50 | > 100 | < 50 |  |  |  |  |  | Cc1c(-c2onc(-c3c(F)cccc3Cl)c2COC2CC2)cnn1CCC(C)(C)O [Example 82, 4-{4-[3-(2-chloro-6-fluorophenyl)-4-(cyclopropoxymethyl)-1,2-oxazol-5-yl]-5-methyl-1H-pyrazol-1-yl}-2-methylbutan-2-ol]
1 to 2.99 (≈ 0.432 to 1.29 µg/mL) | < 50 | < 50 | 40 to 100 | < 50 |  |  |  |  |  | Cc1c(-c2onc(-c3c(F)cccc3Cl)c2COC2CC2)cnn1[C@H]1C[C@@](C)(O)C1 [Example 83, 3-{4-[3-(2-chloro-6-fluorophenyl)-4-(cyclopropoxymethyl)-1,2-oxazol-5-yl]-5-methyl-1H-pyrazol-1-yl}-1-methylcyclobutan-1-ol]
> 10 | 50 to 500 | < 50 | > 100 | < 50 |  |  |  |  |  | C[C@]1(O)C[C@@H](n2ncc(-c3onc(-c4ccccc4Cl)c3COC3CC3)c2C(F)(F)F)C1 [Example 87, 3-{4-[3-(2-chlorophenyl)-4-(cyclopropoxymethyl)-1,2-oxazol-5-yl]-5-(trifluoromethyl)-1H-pyrazol-1-yl}-1-methylcyclobutan-1-ol]
> 10 | < 50 | < 50 | 2 to 9.99 | < 50 |  |  |  |  |  | CC(C)OCc1c(-c2c(F)cccc2Cl)noc1-c1cnn(C[C@@H](C)O)c1C(F)(F)F [Example 89, (2R)-1-{4-[3-(2-chloro-6-fluorophenyl)-4-[(propan-2-yloxy)methyl]-1,2-oxazol-5-yl]-5-(trifluoromethyl)-1H-pyrazol-1-yl}propan-2-ol]
